What was measured:
[1] = 100 kPa, Liquid; for viscosity: Concentric cylinders viscometry; for mass density: Vibrating tube method
[2] = xn = mol fraction of the nth substance listed; conditions: 100 kPa, Liquid, x2 = 0; for viscosity: Concentric cylinders viscometry; for mass density: Vibrating tube method

CC(C)O [propan-2-ol]
[1]
Conditions	mass density [kg/m3]	viscosity [mPa·s]
293.15 K	785.4	2.42
298.15 K	781.1	2.08
303.15 K	776.8	1.8
308.15 K	772.4	1.56
313.15 K	768	1.36
318.15 K	763.4	1.19
323.15 K	758.8	1.05

CCC(C)O (stereo not drawn) [butan-2-ol]
[1]
Conditions	mass density [kg/m3]	viscosity [mPa·s]
293.15 K	806.7	3.67
298.15 K	802.7	3.04
303.15 K	798.4	2.54
308.15 K	794.1	2.13
313.15 K	789.8	1.8
318.15 K	785.2	1.54
323.15 K	780.6	1.33

CCCC(C)O (stereo not drawn) [pentan-2-ol]
[1]
Conditions	mass density [kg/m3]	viscosity [mPa·s]
293.15 K	809.3	3.97
298.15 K	805.3	3.32
303.15 K	801.2	2.81
308.15 K	797	2.37
313.15 K	792.7	1.99
318.15 K	788.4	1.66
323.15 K	784	1.39

O=Cc1ccccc1 [benzaldehyde]
[1]
Conditions	mass density [kg/m3]	viscosity [mPa·s]
293.15 K	1046.3	1.52
298.15 K	1041.7	1.41
303.15 K	1037.1	1.31
308.15 K	1032.4	1.22
313.15 K	1027.9	1.15
318.15 K	1023.4	1.09
323.15 K	1019.1	1.03

CCC(C)O (stereo not drawn) [butan-2-ol] + O=Cc1ccccc1
[2]
Conditions	mass density [kg/m3]	viscosity [mPa·s]
293.15 K	806.7	3.67
298.15 K	802.7	3.04
303.15 K	798.4	2.54
308.15 K	794.1	2.13
313.15 K	789.8	1.8
318.15 K	785.2	1.54
323.15 K	780.6	1.33

CCCC(C)O (stereo not drawn) [pentan-2-ol] + O=Cc1ccccc1
[2]
Conditions	mass density [kg/m3]	viscosity [mPa·s]
293.15 K	809.3	3.97
298.15 K	805.3	3.32
303.15 K	801.2	2.81
308.15 K	797	2.37
313.15 K	792.7	1.99
318.15 K	788.4	1.66
323.15 K	784	1.39

CC(C)O [propan-2-ol] + O=Cc1ccccc1
[2]
Conditions	mass density [kg/m3]	viscosity [mPa·s]
293.15 K	785.4	2.42
298.15 K	781.1	2.08
303.15 K	776.8	1.8
308.15 K	772.4	1.56
313.15 K	768	1.36
318.15 K	763.4	1.19
323.15 K	758.8	1.05

— the NIST ThermoML archive (doi:10.1021/acs.jced.7b00335)
